Experiments:
P53 = assay: Western blot for P53; type: cell-based, Human; conditions: CL187 cells, 12 h
Experimental: CL187 cells were treated with RE or PTE for 6 or 12 h, collected, and placed into lysis buffer (KeyGEN BioTECH, Nanjing, China). The total protein content in the cell lysates was measured using a BCA kit. Equivalent amount of total protein (30 μg) was loaded onto 10% SDS-PAGE gel. Electrophoresis was performed at 80 V for 25 min. After the sample went through concentrated gel, the voltage was adjusted to 120 V. Electrophoresis was stopped when the bromophenol blue band approached the bottom of the gel. After being transferred to PVDF membranes, the samples were incubated separately with 3 types of primary antibodies Top1, Tdp1, and P53 rabbit mAb (CST, Boston, MA, USA), followed by the incubation with secondary antibody goat anti-rabbit IgG (HRP)-conjugated (1:3000). ECL kit (New Cell and Molecular Biotech, Suzhou, China) was used for color development, and the images were collected by the gel imaging system (Tanon-5200, Shanghai, China).

Tdp1 mRNA = assay: qPCR of Tdp1 mRNA in cells; type: cell-based, Human; conditions: 6 h
Experimental: CL187 cells were treated with different concentrations of RE and PTE for 6, 12, 24 h, collected, and added with TRIzol (Thermo Fisher Scientific, Waltham, MA, USA). RNA was precipitated by isopropyl alcohol and washed with 75% ethanol prepared from diethylpyrocarbonate (DEPC) water. The obtained total RNA was dissolved in DEPC water and reverse transcribed into cDNA by a Hifair Ⅲ 1st strand cDNA Synthesis SuperMix for qPCR Kit (Yeasen Biotech, Shanghai, China). The resultant cDNA was used as a template, and the primer sequences were (5′→3′): Top1: F: […], R: […]; Tdp1: F: ACCAGAGTTCAGGAAGAAG, R: TCATAGAGCAGCAGCATC. GAPDH: F: […], R: TCTTCCTCTTGTGCTCTTG. Transcription levels of Top1, Tdp1, and GAPDH genes were determined by qPCR. The qPCR was performed as follows: 95 °C for 10 min, 40 cycles of 95 °C for 10 s, and 60 °C for 30 s. The cycle threshold (Ct) value was determined, and the RQ value was calculated.

Top1 in CL187 cells = Top1 in CL187 cells (Homo sapiens, UniProt P11387); assay: Intracellular Top1 enzyme activity assay; type: cell-based; set-up: endogenous in cells; host or cells: CL187 cells (nuclear, mitochondrial and cytoplasmic extracts); conditions: CL187 cells treated 6 h; CPT at 50 μM
Sequence of Top1 in CL187 cells (P11387 2-765): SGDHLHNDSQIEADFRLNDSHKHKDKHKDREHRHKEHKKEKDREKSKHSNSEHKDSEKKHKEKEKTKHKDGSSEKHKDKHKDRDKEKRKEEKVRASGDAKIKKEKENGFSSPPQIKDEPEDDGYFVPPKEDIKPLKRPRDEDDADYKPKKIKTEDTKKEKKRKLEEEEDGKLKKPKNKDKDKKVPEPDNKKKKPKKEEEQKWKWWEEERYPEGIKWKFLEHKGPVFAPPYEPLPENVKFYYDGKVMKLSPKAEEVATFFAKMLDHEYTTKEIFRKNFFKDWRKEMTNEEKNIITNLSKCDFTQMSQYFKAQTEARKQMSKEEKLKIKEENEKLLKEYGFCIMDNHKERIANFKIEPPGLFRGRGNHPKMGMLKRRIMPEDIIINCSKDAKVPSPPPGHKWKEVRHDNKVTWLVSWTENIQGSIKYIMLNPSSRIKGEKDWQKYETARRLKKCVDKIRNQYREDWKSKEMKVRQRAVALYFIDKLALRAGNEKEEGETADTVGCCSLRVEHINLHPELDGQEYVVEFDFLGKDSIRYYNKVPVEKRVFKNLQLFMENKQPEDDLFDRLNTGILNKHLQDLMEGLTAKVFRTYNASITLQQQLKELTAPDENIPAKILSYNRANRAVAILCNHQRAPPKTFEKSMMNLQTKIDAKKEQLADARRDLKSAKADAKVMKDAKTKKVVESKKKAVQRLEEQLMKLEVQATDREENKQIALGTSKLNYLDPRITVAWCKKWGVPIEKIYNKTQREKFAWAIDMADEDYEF
Experimental: CL187 cells were treated with different concentrations of drugs for 6 h. The supernatant was discarded, and the cells were collected. The extracts of cytoplasm, mitochondria, and nucleus were obtained by the same method as described in Section 2.4.7. The protein concentration of each extract was detected by BCA kit. Enzyme activity reaction was carried out by using 125 ng super helical DNA (pHOT-1) and cell extract. The protein concentration of the extract was guaranteed to be the same in each group. The mixture solution of the pHOT-1 and the cell extract was added into the reaction buffer and incubated for 30 min at 37 °C. The reaction was terminated with loading buffer. The agarose gel electrophoresis was performed, and the images were collected.

In the case of COc1cc(/C=C/c2ccc(O)cc2)cc(OC)c1 [PTE, 3,5-dimethoxy-4′-hydroxy-trans-stilbene], the “expression of P53 (WB)” value (P53) is reported as “promoted the expression of P53”, the “Tdp1 mRNA expression” value (Tdp1 mRNA; Tdp1-over CL187 cells) is reported as “did not change significantly” and the “Tdp1 mRNA expression” value (Tdp1 mRNA; siRNA-Top1 CL187 cells) is reported as “inhibited without obvious trend”. For the same molecule, the “Tdp1 mRNA expression” value (Tdp1 mRNA; wild-type CL187 cells) was “significantly inhibited” and the “Top1 enzyme activity in the nucleus” value (Top1 in CL187 cells) was “significantly inhibited”.
